The target of one assay is T1, Caspase-2 (Homo sapiens, UniProt P42575).
T1 sequence (P42575 170-333 limits assumed): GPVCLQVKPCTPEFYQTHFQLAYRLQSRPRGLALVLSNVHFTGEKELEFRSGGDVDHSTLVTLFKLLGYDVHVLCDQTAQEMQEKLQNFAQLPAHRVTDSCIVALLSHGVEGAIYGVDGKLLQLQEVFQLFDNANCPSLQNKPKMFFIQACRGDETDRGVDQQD
T1 sequence (P42575 348-452 limits assumed): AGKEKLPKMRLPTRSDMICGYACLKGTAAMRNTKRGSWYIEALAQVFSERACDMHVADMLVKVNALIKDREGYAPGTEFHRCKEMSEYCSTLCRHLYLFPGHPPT
Description: Caspase-2 progress curve inhibition assay. The note with it: second-order rate constant; Cbz-VDVAD-AFC substrate; Pipes buffer pH 7.2.

Another assay has as its target T2, Caspase-3 (Homo sapiens, UniProt P42574).
T2 sequence (P42574 29-175 limits assumed): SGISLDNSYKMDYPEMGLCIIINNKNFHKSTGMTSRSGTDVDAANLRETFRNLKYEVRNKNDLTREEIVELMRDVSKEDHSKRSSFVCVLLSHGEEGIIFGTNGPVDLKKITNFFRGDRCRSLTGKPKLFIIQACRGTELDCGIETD
T2 sequence (P42574 176-277 limits assumed): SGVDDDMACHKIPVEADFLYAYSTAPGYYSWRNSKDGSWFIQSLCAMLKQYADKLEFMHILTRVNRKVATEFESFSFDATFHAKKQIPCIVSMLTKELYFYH
Briefly: Caspase-3 progress curve inhibition assay. Particulars: for k2 Caspase-3: second-order rate constant, Ac-DEVD-AMC substrate, Pipes buffer pH 7.2.

The target of the next assay is T3, Caspase-6 (Homo sapiens, UniProt P55212).
T3 sequence (P55212 24-179 limits assumed): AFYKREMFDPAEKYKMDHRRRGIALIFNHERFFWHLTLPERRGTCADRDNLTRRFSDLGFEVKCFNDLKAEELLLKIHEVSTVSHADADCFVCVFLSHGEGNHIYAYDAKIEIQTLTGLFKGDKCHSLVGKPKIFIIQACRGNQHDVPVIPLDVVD
T3 sequence (P55212 194-293 limits assumed): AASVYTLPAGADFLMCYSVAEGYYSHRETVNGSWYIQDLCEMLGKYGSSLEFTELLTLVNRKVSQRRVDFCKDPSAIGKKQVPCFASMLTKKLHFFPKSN
Briefly: Caspase-6 progress curve inhibition assay. The note with it: second-order rate constant; Ac-DEVD-AMC substrate; Pipes buffer pH 7.2.

For another assay, the target named is T4, Caspase-7 (Homo sapiens, UniProt P55210).
T4 sequence (P55210 24-198 limits assumed): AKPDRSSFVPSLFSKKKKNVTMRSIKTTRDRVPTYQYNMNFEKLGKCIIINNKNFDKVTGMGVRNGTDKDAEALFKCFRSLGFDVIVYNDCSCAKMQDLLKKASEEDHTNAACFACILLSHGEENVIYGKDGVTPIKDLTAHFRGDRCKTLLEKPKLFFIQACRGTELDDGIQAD
T4 sequence (P55210 207-303 limits assumed): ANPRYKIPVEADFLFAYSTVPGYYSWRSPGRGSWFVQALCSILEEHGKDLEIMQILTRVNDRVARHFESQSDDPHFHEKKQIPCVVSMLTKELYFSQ
Description: Caspase-7 progress curve inhibition assay. Particulars: second-order rate constant; Ac-DEVD-AMC substrate; Pipes buffer pH 7.2.

For the next assay, the target named is Caspase-8 (Homo sapiens, UniProt Q14790). Briefly: Caspase-8 progress curve inhibition assay. Particulars: second-order rate constant; Ac-DEVD-AMC substrate; Pipes buffer pH 7.2.
Sequence of Caspase-8 (Q14790 217-374 limits assumed): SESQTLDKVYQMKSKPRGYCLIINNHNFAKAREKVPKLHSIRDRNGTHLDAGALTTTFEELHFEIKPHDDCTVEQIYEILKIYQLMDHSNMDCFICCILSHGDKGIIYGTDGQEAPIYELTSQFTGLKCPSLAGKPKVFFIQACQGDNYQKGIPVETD
Sequence of Caspase-8 (Q14790 385-479 limits assumed): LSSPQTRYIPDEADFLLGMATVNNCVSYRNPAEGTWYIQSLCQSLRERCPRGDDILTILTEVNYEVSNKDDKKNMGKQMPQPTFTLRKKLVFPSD
Another assay has as its target T5, Caspase-9 (Homo sapiens, UniProt P55211).
T5 sequence (P55211 1-315 limits assumed): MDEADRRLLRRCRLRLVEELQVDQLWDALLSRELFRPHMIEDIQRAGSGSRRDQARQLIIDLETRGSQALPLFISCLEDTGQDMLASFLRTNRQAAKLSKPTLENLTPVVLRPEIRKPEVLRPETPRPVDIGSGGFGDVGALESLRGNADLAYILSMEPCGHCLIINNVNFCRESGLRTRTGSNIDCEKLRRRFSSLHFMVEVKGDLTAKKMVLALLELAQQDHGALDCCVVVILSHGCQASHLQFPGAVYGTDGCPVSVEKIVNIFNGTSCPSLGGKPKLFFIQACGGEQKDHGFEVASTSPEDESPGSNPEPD
T5 sequence (P55211 331-416 limits assumed): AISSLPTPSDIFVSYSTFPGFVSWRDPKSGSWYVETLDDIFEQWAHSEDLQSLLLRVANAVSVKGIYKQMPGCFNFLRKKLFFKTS
Description: Caspase-9 progress curve inhibition assay. Particulars: for k2 Caspase-9: second-order rate constant, Ac-LEHD-AFC substrate, Hepes buffer pH 7.0 with 0.7 M sodium citrate.

A further assay addresses T6, Caspase-10 (Homo sapiens, UniProt Q92851).
T6 sequence (Q92851 220-415 limits assumed): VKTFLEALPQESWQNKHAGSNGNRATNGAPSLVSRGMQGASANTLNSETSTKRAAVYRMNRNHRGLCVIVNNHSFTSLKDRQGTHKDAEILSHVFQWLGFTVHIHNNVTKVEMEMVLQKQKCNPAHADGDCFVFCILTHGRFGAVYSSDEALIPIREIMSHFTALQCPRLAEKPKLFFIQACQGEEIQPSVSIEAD
T6 sequence (Q92851 416-521 limits assumed): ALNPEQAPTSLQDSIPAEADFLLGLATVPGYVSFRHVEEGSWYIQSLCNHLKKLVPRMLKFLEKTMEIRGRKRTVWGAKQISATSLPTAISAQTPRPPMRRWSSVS
Description: Caspase-10 progress curve inhibition assay. The note with it: second-order rate constant; Ac-DEVD-AMC substrate; Hepes/PEG buffer pH 7.0.

Peptide text beside a SMILES is read from it. * marks the point of attachment. AFC = O=c1cc(C(F)(F)F)c2ccc(N*)cc2o1

Description for Caspase-2: Inhibition rates were determined by the progress curve method known in the art. This method is suitable for measuring irreversible inhibition rates with fast inhibitors, where the inhibitor, the substrate and the enzyme are incubated together and the rate of substrate hydrolysis is measured continuously. The rate of substrate hydrolysis in the presence of the inhibitor was monitored for 20 minutes. The progress curve of inhibition, where the product formation approaches an asymptote is described in the equation ln([P∞]−[P])=ln[P∞]−A[I]t where [P] and [P∞] are the product concentrations at t and t=∞ respectively, A is the apparent rate constant in the presence of the substrate. The apparent rate constants were determined from the slopes of plots of ln ([P∞]−[P]) versus time (t) in seconds as previously described, where A=slope/[I].
(§1) For competitive and irreversible inhibition, the apparent rate constant is converted to the second order rate constant k2 by taking into consideration the effect of the substrate concentration on the apparent rate constant. The second order rate constant is described as in the equation: k2=A*(1+[S]/KM)
(§2) The concentration of the caspase-3 stock solution was 2 nM in the assay buffer. Assay buffer is a 1:1 mixture of caspase buffer (40 mM Pipes, 200 mM NaCl, 0.2% (w/v) CHAPS, sucrose 20% (w/v)) and 20 mM DTT solution in H2O at pH 7.2. The concentration of the substrate stock solution was 2 mM in DMSO. The enzyme was pre-activated for 10 min at 37° C. in the assay buffer. […] 50 μL of 2 nM enzyme stock solution (final concentration: 1 nM) was added to the mixture after 1 min and reading started immediately for 20 min at 37° C. Inhibition experiments were repeated in duplicate and standard deviations determined.
The inhibitor stock solution concentrations varied from 5×10^−3 M to 1×10^−4 M in DMSO.
Description for Caspase-3: Caspase-2, -3, -6, -7, -8, -9 and -10. […] Inhibition rates were determined by the progress curve method known in the art. This method is suitable for measuring irreversible inhibition rates with fast inhibitors, where the inhibitor, the substrate and the enzyme are incubated together and the rate of substrate hydrolysis is measured continuously. The rate of substrate hydrolysis in the presence of the inhibitor was monitored for 20 minutes. The progress curve of inhibition, where the product formation approaches an asymptote is described in the equation ln([P∞]−[P])=ln[P∞]−A[I]t where [P] and [P∞] are the product concentrations at t and t=∞ respectively, A is the apparent rate constant in the presence of the substrate. The apparent rate constants were determined from the slopes of plots of ln ([P∞]−[P]) versus time (t) in seconds as previously described, where A=slope/[I].
as §1, §2
Description for Caspase-9: Caspases-2, -3, -6, -7, -8, -9 and -10 were expressed in E. coli and purified in Guy Salvesen's laboratory at the Burnham Institute, La Jolla, Calif., according to the methods known in the art. Inhibition rates were determined by the progress curve method known in the art. This method is suitable for measuring irreversible inhibition rates with fast inhibitors, where the inhibitor, the substrate and the enzyme are incubated together and the rate of substrate hydrolysis is measured continuously. The rate of substrate hydrolysis in the presence of the inhibitor was monitored for 20 minutes. The progress curve of inhibition, where the product formation approaches an asymptote is described in the equation ln([P∞]−[P])=ln[P∞]−A[I]t where [P] and [P∞] are the product concentrations at t and t=∞ respectively, A is the apparent rate constant in the presence of the substrate. The apparent rate constants were determined from the slopes of plots of ln ([P∞]−[P]) versus time (t) in seconds as previously described, where A=slope/[I].
as §1
Assay buffer is a 1:1 mixture of buffer (200 mM Hepes, 100 mM NaCl, 0.02% (w/v) CHAPS, sucrose 20% (w/v)) and 20 mM DTT solution in H2O at pH 7.0). The assay buffer was supplemented with 0.7 M sodium citrate. The enzyme was pre-activated for 10 min at 37° C. in the assay buffer.

Consider `CC(C)[C@H](NC(=O)[C@H](CCC(=O)O)NC(=O)[C@H](CC(=O)O)NC(=O)OCc1ccccc1)C(=O)NN(CC(=O)O)C(=O)C=CC(=O)N(Cc1cccc2ccccc12)Cc1cccc2ccccc12`, for which, on Caspase-2, the “k2 Caspase-2” value came out at 410 M⁻¹ s⁻¹. The “k2 Caspase-3” value at Caspase-3 is recorded as 5,620,000 M^−1s^−1. In addition, at Caspase-6, the “k2 Caspase-6” value is reported as 29,700 M^−1s^−1. Moreover, at Caspase-7, the “k2 Caspase-7” value is 875,000 M^−1s^−1. In addition, the “k2 Caspase-8” value at Caspase-8 is given as 9,460 M^−1s^−1. Also, on Caspase-9, the “k2 Caspase-9” value was 150 M⁻¹ s⁻¹. The “k2 Caspase-10” value on Caspase-10 is 32,500 M^−1s^−1.
Regarding `CC(C)[C@H](NC(=O)[C@H](CCC(=O)O)NC(=O)[C@H](CC(=O)O)NC(=O)OCc1ccccc1)C(=O)NN(CC(=O)O)C(=O)/C=C/C(=O)N(Cc1ccccc1)Cc1ccccc1` (relative stereo) [Cbz-Asp-Glu-Val-AAsp-CH═CH—CON(CH2Ph)2, N^2—(N-Benzyloxycarbonylaspartylglutamylvalyl)-N^1-carboxymethyl-N^1-trans-(3-dibenzylcarbamoylpropenoyl)hydrazine], the “k2 Caspase-2” value at Caspase-2 worked out at 110 M⁻¹ s⁻¹. The “selectivity: inhibits caspase-3 more potently than caspase-6” value at Caspase-3 (ratio of k2 caspase-3 to caspase-6) was determined as 588 fold. Besides, the “selectivity: inhibits caspase-3 more potently than caspase-8” value on Caspase-3 (ratio of k2 caspase-3 to caspase-8) was determined as 348 fold. For the same compound, the “k2 Caspase-3” value on Caspase-3 (listed as Cbz-Asp-Glu-Val-AAsp-CH═CH—CON(Bzl)2) is 3,000,000 M^−1s^−1. Also, the “k2 Caspase-6” value at Caspase-6 is 5,100 M^−1s^−1. Besides, the “k2 Caspase-7” value on Caspase-7 was 359,000 M^−1s^−1. In addition, at Caspase-8, the “k2 Caspase-8” value is recorded as 8,600 M^−1s^−1. Also, the “k2 Caspase-9” value on Caspase-9 is 450 M⁻¹ s⁻¹. Further, the “k2 Caspase-10” value at Caspase-10 is given as 6,300 M^−1s^−1.
Take `CC(C)[C@H](NC(=O)[C@H](CCC(=O)O)NC(=O)[C@H](CC(=O)O)NC(=O)OCc1ccccc1)C(=O)NN(CC(=O)O)C(=O)/C=C/C(=O)N(C)Cc1ccccc1` (relative stereo) [Cbz-Asp-Glu-Val-AAsp-CH═CH—CON(CH3)CH2Ph, N^1-trans-(3-Benzylmethylcarbamoylpropenoyl)-N^2—(N-benzyloxycarbonylaspartylglutamylvalyl)-N^1-carboxymethylhydrazine]: the “k2 Caspase-2” value on Caspase-2 was determined as 660 M⁻¹ s⁻¹. The “k2 Caspase-3” value on Caspase-3 is given as 2,640,000 M^−1s^−1. Also, the “k2 Caspase-6” value on Caspase-6 is given as 9,500 M^−1s^−1. Moreover, on Caspase-7, the “k2 Caspase-7” value is listed as 275,000 M^−1s^−1. Moreover, the “k2 Caspase-8” value on Caspase-8 is listed as 90,300 M^−1s^−1. Also, at Caspase-9, the “k2 Caspase-9” value came out at 820 M⁻¹ s⁻¹. Moreover, the “k2 Caspase-10” value on Caspase-10 is listed as 29,400 M^−1s^−1.
For the compound `CC(C)C[C@H](NC(=O)OCc1ccccc1)C(=O)N[C@@H](CCC(=O)O)C(=O)N[C@H](C(=O)NN(CC(=O)O)C(=O)/C=C/C(=O)OCc1ccccc1)[C@@H](C)O` (relative stereo) [Cbz-Leu-Glu-Thr-AAsp-CH═CH—COOCH2Ph, N^1-trans-(3-Benzyloxycarbonylpropenoyl)-N^2—(N-benzyloxycarbonylleucylglutamylthreonyl)-N^1-carboxymethylhydrazine], the “k2 Caspase-2” value on Caspase-2 amounted to 480 M⁻¹ s⁻¹. For the same compound, the “k2 Caspase-3” value at Caspase-3 is 4,600 M^−1s^−1. In addition, the “k2 Caspase-6” value at Caspase-6 is listed as 47,600 M^−1s^−1. Moreover, the “k2 Caspase-7” value at Caspase-7 is reported as 1,570 M^−1s^−1. Further, the “k2 Caspase-8” value on Caspase-8 was 98,400 M^−1s^−1. Further, the “k2 Caspase-10” value at Caspase-10 was 18,900 M^−1s^−1.
In the case of `CC[C@H](C)[C@H](NC(=O)OCc1ccccc1)C(=O)N[C@@H](CCC(=O)O)C(=O)N[C@H](C(=O)NN(CC(=O)O)C(=O)/C=C/C(=O)N(C)CCc1ccccc1)[C@@H](C)O` (relative stereo) [N^2—(N-Benzyloxycarbonylisoleucylglutamylthreonyl)-N^1-carboxylmethyl-N^1-trans-(3-methylphenylethylcarbamoylpropenoyl)hydrazine], at Caspase-2, the “k2 Caspase-2” value stood at 38 M⁻¹ s⁻¹. In addition, the “k2 Caspase-3” value at Caspase-3 is recorded as 5,480 M^−1s^−1. The “k2 Caspase-7” value at Caspase-7 was 1,020 M^−1s^−1. The “k2 Caspase-8” value at Caspase-8 is on record as 60,500 M^−1s^−1. Also, the “k2 Caspase-9” value at Caspase-9 was determined as 760 M⁻¹ s⁻¹. For the same compound, the “k2 Caspase-10” value on Caspase-10 was 8,770 M^−1s^−1.
For the compound `CC(C)[C@H](NC(=O)OCc1ccccc1)C(=O)NN(CC(=O)O)C(=O)/C=C/c1ccc(Cl)cc1` (stereo in doubt) [Cbz-Val-AAsp-CH═CH-4-Cl—Ph, N^2—(N-Benzyloxycarbonylvalyl)-N^1-carboxymethyl-N^1-trans-(3-(4-chlorophenyl)propenoyl)hydrazine], the “k2 Caspase-9” value at Caspase-9 turned out to be 19 M⁻¹ s⁻¹.
Regarding `CCCCNC(=O)/C=C/C(=O)N(CC(=O)O)NC(=O)[C@@H](NC(=O)OCc1ccccc1)C(C)C` (stereo in doubt) [Cbz-Val-AAsp-CH═CH—CONH-nBu, N^2—(N-Benzyloxycarbonylvalyl)-N^1-trans-(3-butylcarbamoylpropenoyl)-N^1-carboxymethylhydrazine], the “k2 Caspase-3” value on Caspase-3 is 184 M⁻¹ s⁻¹. For the same compound, at Caspase-7, the “k2 Caspase-7” value came out at 55 M⁻¹ s⁻¹. In addition, the “k2 Caspase-9” value on Caspase-9 came out at 32 M⁻¹ s⁻¹.
As to `CC(C)[C@H](NC(=O)OCc1ccccc1)C(=O)NN(CC(=O)O)C(=O)/C=C/C(=O)NCc1ccccc1` (stereo in doubt) [Cbz-Val-AAsp-CH═CH—CONHCH2Ph, N^1-trans-(3-Benzylcarbamoylpropenoyl)-N^2—(N-benzyloxycarbonylvalyl)-N^1-carboxymethylhydrazine], on Caspase-3, the “k2 Caspase-3” value was 185 M⁻¹ s⁻¹. Further, at Caspase-7, the “k2 Caspase-7” value came out at 60 M⁻¹ s⁻¹. The “k2 Caspase-9” value on Caspase-9 was found to be 20 M⁻¹ s⁻¹.
Take `CCOC(=O)/C=C/C(=O)N(CC(=O)O)NC(=O)[C@@H](NC(=O)OCc1ccccc1)C(C)C` (stereo in doubt) [Cbz-Val-AAsp-CH═CH—COOEt, N^2—(N-Benzyloxycarbonylvalyl)-N^1-carboxymethyl-N^1-trans-(3-ethoxycarbonylpropenoyl)hydrazine]: the “k2 Caspase-3” value on Caspase-3 is recorded as 8,000 M^−1s^−1. For the same compound, the “k2 Caspase-7” value on Caspase-7 is recorded as 2,680 M^−1s^−1. For the same compound, the “k2 Caspase-9” value on Caspase-9 is 5,240 M^−1s^−1. Moreover, the “k2 Caspase-10” value on Caspase-10 was 389 M⁻¹ s⁻¹.
`CC(C)[C@H](NC(=O)OCc1ccccc1)C(=O)NN(CC(=O)O)C(=O)/C=C\Cl` (stereo in doubt) [Cbz-Val-AAsp-CH═CH—Cl, N^2—(N-Benzyloxycarbonylvalyl)-N^1-carboxymethyl-N^1-cis-(3-chloropropenoyl)hydrazine]: the “k2 Caspase-9” value on Caspase-9 stood at 15 M⁻¹ s⁻¹.
In general, Km refers to the substrate concentration at which the rate is half of its maximum. For `CC(=O)N[C@@H](CC(C)C)C(=O)N[C@@H](CCC(=O)O)C(=O)N[C@@H](Cc1cnc[nH]1)C(=O)N[C@@H](CC(=O)O)C(=O)Nc1ccc2c(C(F)(F)F)cc(=O)oc2c1` [Ac-LEHD-AFC, reference compound] (Ac-LEHD-{AFC}), the Km on Caspase-9 (read-out: KM with caspase-9, substrate Ac-LEHD-AFC) stood at 114 µM.

(Values after patent US7482379B2, “Propenoyl hydrazides” (priority 2004, dated 2009).)
